Experiments:
HCT-116 [1] = experiment: Cell cycle arrest in human HCT116 cells assessed as accumulation at G1 phase at 5 uM after 24 hrs; format: functional
HCT-116 [2] = experiment: Cell cycle arrest in human HCT116 cells assessed as accumulation at G1 phase at 20 uM after 24 hrs; format: functional
HL-60 = experiment: Inhibition of cell growth in human HL60 cells; format: functional, cell-based
HCT-116 [3] = experiment: Cell cycle arrest in human HCT116 cells assessed as accumulation at G1 phase at 10 uM after 24 hrs; format: functional
HCT-116 [4] = experiment: Inhibition of cell growth in human HCT116 cells; format: functional, cell-based
A549 = experiment: Inhibition of cell growth in human A549 cells; format: functional, cell-based
MCF7 = experiment: Inhibition of cell growth in human MCF7 cells; format: functional, cell-based

CC[C@@]12CCCN3CCc4c(n(c5ccccc45)[C@H](c4ccc(O)c5c4N[C@@H]4CC[C@@]6(CC)CCCN7CC[C@@]54[C@H]76)C1)[C@H]32 [BISLEUCONOTHINE A]
Activity (HCT-116 [1]): 72% | Activity (HCT-116 [2]): 79.5% | IC50 (HL-60): 11 µM | Activity (HCT-116 [3]): 75.1% | IC50 (HCT-116 [4]): 5.7 µM | IC50 (A549): 7 µM | IC50 (MCF7): 9.2 µM

From ChEMBL document CHEMBL1155382, “Bisleuconothine A, an eburnane-aspidosperma bisindole alkaloid from Leuconotis griffithii” (Bioorg Med Chem Lett, 2010)
